From paper PMC11269473, “Monoamine oxidase inhibition properties of 2,1-benzisoxazole derivatives” (Molecular Diversity, 2023)
Values joined by “and” are separate entries in the source; they are usually repeats but may differ in a detail not shown here. Equal entries are not always repeated. Where two headings read alike, the source gives them in different places.

What was measured:
[1] = biological target: T1, recombinant human MAO-B (Homo sapiens, UniProt P27338); assay: MAO-B inhibition, IC50 determination with kynuramine as substrate (fluorescence of 4-hydroxyquinoline); type: biochemical; details: for SI (selectivity index): SI = IC50(MAO-A)/IC50(MAO-B); for IC50: recombinant human MAO-B, 50 µM kynuramine, mean ± SD of triplicate, NI = no inhibition observed at 100 µM
T1 construct: purchased Sigma-Aldrich; host or cells: insect cells (microsomes)
T1 sequence (P27338 1-520): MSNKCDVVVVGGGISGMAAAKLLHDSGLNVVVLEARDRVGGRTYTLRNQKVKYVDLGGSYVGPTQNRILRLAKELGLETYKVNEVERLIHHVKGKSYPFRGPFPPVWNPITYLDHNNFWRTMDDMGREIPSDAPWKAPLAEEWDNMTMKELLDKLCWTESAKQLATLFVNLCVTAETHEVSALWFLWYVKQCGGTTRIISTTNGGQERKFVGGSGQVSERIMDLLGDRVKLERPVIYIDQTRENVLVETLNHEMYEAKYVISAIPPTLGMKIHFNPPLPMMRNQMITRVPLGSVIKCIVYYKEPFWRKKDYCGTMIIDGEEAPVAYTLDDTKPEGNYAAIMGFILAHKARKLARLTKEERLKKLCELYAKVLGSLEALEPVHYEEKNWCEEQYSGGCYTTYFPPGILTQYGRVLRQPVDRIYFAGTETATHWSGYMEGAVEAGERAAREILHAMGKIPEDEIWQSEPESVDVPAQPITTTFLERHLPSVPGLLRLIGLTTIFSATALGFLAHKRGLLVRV
Method: (§1) The MAO inhibition properties of the 2,1-benzisoxazole derivatives were investigated using the commercially available recombinant human MAO-A and MAO-B enzymes with kynuramine serving as substrate. MAO oxidizes kynuramine to yield 4-hydroxyquinoline, which was measured by fluorescence spectrophotometry.
(§2) For the MAO inhibition studies, a Varian Cary Eclipse fluorescence spectrophotometer was employed. Microsomes from insect cells containing recombinant human MAO-A and MAO-B (5 mg protein/mL) and kynuramine dihydrobromide were obtained from Sigma-Aldrich.
IC50 values for the inhibition of MAO were measured as described previously. Microsomes from insect cells containing recombinant human MAO-A and MAO-B (5 mg protein/mL) served as enzyme sources (Sigma-Aldrich) while kynuramine was used as non-specific MAO substrate. The enzyme reactions (200 µL reactions prepared in 96-well microtiter plates) contained phosphate buffer (100 mM, pH 7.4), 50 µM kynuramine and the test inhibitors at concentrations of 0.003–100 µM. […] The concentration of 4-hydroxyquinoline, the product of kynuramine oxidation by MAO, was measured by fluorescence spectrophotometry (λex = 310 nm; λem = 400 nm). IC50 values were estimated from sigmoidal plots of enzyme catalytic rate versus the inhibitor concentration (log[I]) which were constructed with the Prism software package (GraphPad). IC50 values were estimated in triplicate determinations from these plots and are expressed as mean ± standard deviation (SD).

[2] = biological target: T2, recombinant human MAO-A (Homo sapiens, UniProt P21397); assay: MAO-A inhibition, IC50 determination with kynuramine as substrate (fluorescence of 4-hydroxyquinoline); type: biochemical; details: 50 µM kynuramine, mean ± SD of triplicate, NI = no inhibition observed at 100 µM
T2 construct: purchased Sigma-Aldrich; host or cells: insect cells (microsomes)
T2 sequence (P21397 1-527): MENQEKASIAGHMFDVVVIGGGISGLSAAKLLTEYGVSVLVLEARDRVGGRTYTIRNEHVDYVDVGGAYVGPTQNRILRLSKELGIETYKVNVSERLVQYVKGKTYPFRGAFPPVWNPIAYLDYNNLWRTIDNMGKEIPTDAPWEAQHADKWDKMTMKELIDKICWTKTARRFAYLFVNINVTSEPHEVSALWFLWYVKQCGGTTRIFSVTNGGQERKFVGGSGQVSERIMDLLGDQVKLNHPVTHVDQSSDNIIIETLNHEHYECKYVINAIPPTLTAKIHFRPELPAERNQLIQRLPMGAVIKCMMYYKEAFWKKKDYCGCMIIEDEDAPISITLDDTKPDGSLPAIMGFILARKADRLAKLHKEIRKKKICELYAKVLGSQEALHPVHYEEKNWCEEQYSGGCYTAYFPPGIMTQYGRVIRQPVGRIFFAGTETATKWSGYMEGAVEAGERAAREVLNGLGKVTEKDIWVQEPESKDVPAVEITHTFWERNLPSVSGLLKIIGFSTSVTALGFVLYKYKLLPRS
Method: as §1, §2
IC50 values for the inhibition of MAO were measured as described previously. Microsomes from insect cells containing recombinant human MAO-A and MAO-B (5 mg protein/mL) served as enzyme sources (Sigma-Aldrich) while kynuramine was used as non-specific MAO substrate. The enzyme reactions (200 µL reactions prepared in 96-well microtiter plates) contained phosphate buffer (100 mM, pH 7.4), 50 µM kynuramine and the test inhibitors at concentrations of 0.003–100 µM. […] The reactions were initiated with addition of MAO-A (0.0075 mg protein/mL) or MAO-B (0.015 mg protein/mL) and after 20 min of incubation at 37 °C, the reactions were terminated by the addition of 80 µL NaOH (2 N). The concentration of 4-hydroxyquinoline, the product of kynuramine oxidation by MAO, was measured by fluorescence spectrophotometry (λex = 310 nm; λem = 400 nm). IC50 values were estimated from sigmoidal plots of enzyme catalytic rate versus the inhibitor concentration (log[I]) which were constructed with the Prism software package (GraphPad). IC50 values were estimated in triplicate determinations from these plots and are expressed as mean ± standard deviation (SD).

[3] = biological target: T2, recombinant human MAO-A; assay: Lineweaver–Burk plots / mode of MAO-A inhibition and Ki; type: biochemical
Method: These two compounds represent potent MAO inhibitors among the study compounds. […] Each line of the Lineweaver–Burk plots was constructed with the kynuramine concentration ranging from 15 to 250 μM.
The insets are replots of the slopes of the Lineweaver–Burk plots versus inhibitor concentration. The Ki value equals the negative of the x-axis intercept when y = 0
IC50 values for the inhibition of MAO were measured as described previously. Microsomes from insect cells containing recombinant human MAO-A and MAO-B (5 mg protein/mL) served as enzyme sources (Sigma-Aldrich) while kynuramine was used as non-specific MAO substrate. The enzyme reactions (200 µL reactions prepared in 96-well microtiter plates) contained phosphate buffer (100 mM, pH 7.4), 50 µM kynuramine and the test inhibitors at concentrations of 0.003–100 µM. Stock solutions of the test inhibitors were dissolved in DMSO and added to the enzyme reactions to give a final DMSO concentration of 4% (v/v). The reactions were initiated with addition of MAO-A (0.0075 mg protein/mL) or MAO-B (0.015 mg protein/mL) and after 20 min of incubation at 37 °C, the reactions were terminated by the addition of 80 µL NaOH (2 N). The concentration of 4-hydroxyquinoline, the product of kynuramine oxidation by MAO, was measured by fluorescence spectrophotometry (λex = 310 nm; λem = 400 nm). IC50 values were estimated from sigmoidal plots of enzyme catalytic rate versus the inhibitor concentration (log[I]) which were constructed with the Prism software package (GraphPad). IC50 values were estimated in triplicate determinations from these plots and are expressed as mean ± standard deviation (SD).
For each line, the concentration of kynuramine ranged from 15–250 µM.

Row | SI (selectivity index) [1] | IC50 [1] | melting point [°C] | IC50 [2] [µM] | mode of MAO-A inhibition ([3]; Lineweaver–Burk lines intersect on the y-axis) | Ki ([3]; global (shared) fitting of the inhibition data, read-out: Ki, MAO-A, global (shared) fitting to the Michaelis–Menten equation) [µM] | Ki ([3]; replot of slopes versus inhibitor concentration, Ki = −x when y = 0, kynuramine 15–250 µM, read-out: Ki, MAO-A, from replot of slopes of Lineweaver–Burk plots) [µM] | fold more potent MAO-B inhibition than homologues ([1]; versus p-tolyl (3c), phenyl (3j), p-Br-phenyl (3m), p-Cl-phenyl (3n) and p-OCH3-phenyl (3o) homologues) | SMILES
1 |  | 5.56 ± 0.73 µM |  | > 100 |  |  |  |  | Clc1cc2noc(-c3ccccc3)c2cc1Cl [Compound 3k, 6-Dichloro-3-phenylbenzo[c]isoxazole]
2 | 0.20 | 27.3 ± 2.16 µM | 137 to 138 | 5.35 ± 0.211 | competitive | 0.5 ± 0.024 | 0.46 |  | c1ccc(-c2onc3ccc(C4OCCO4)cc23)cc1 [Compound 3l, 5-(1,3-Dioxolan-2-yl)-3-phenylbenzo[c]isoxazole]
3 | 71 | 1.18 ± 0.022 µM | 230 to 232 | 83.2 ± 33.3 |  |  |  |  | Clc1ccc2noc(-c3ccc(Br)cc3)c2c1 [Compound 3m, 3-(4-Bromophenyl)-5-chlorobenzo[c]isoxazole]
4 | 39 | 2.07 ± 0.381 µM | 229 to 232 | 81.3 ± 28.7 |  |  |  |  | Clc1ccc(-c2onc3ccc(Cl)cc23)cc1 [Compound 3n, 5-Chloro-3-(4-chlorophenyl)benzo[c]isoxazole]
5 | 3.6 | 2.34 ± 0.055 µM | 174 | 8.49 ± 0.017 |  |  |  |  | COc1ccc(-c2onc3ccc(Cl)cc23)cc1 [Compound 3o, 5-Chloro-3-(4-methoxyphenyl)benzo[c]isoxazole]
6 | 0.33 | 10 ± 0.949 µM | 190 to 192 | 3.29 ± 0.254 |  |  |  |  | c1ccc(-c2onc3ccc(Oc4ccc5noc(-c6ccccc6)c5c4)cc23)cc1 [Compound 5, 5,5'-Oxybis(3-phenylbenzo[c]isoxazole)]
7 | 622 | 0.098 ± 0.0036 µM | 236 to 237 | 61 ± 9.19 |  |  |  | at least 12 fold | N#Cc1ccc(-c2onc3ccc(Cl)cc23)cc1 [Compound 7b, 4-(5-Chlorobenzo[c]isoxazol-3-yl)benzonitrile]
8 |  | 0.139 ± 0.044 µM | 257 to 258 | > 100 |  |  |  |  | Cc1nc(-c2cc3noc(-c4ccc(C#N)cc4)c3cc2Cl)no1 [Compound 7c, 4-(5-Chloro-6-(5-methyl-1,2,4-oxadiazol-3-yl)benzo[c]isoxazol-3-yl)benzonitrile]

The remaining lines, values behind:

Row | SMILES | SI (selectivity index) [1] | IC50 [1] | melting point [°C] | IC50 [2] [µM] | mode of MAO-A inhibition ([3]; Lineweaver–Burk lines intersect on the y-axis) | Ki ([3]; global (shared) fitting of the inhibition data, read-out: Ki, MAO-A, global (shared) fitting to the Michaelis–Menten equation) [µM] | Ki ([3]; replot of slopes versus inhibitor concentration, Ki = −x when y = 0, kynuramine 15–250 µM, read-out: Ki, MAO-A, from replot of slopes of Lineweaver–Burk plots) [µM] | fold more potent MAO-B inhibition than homologues ([1]; versus p-tolyl (3c), phenyl (3j), p-Br-phenyl (3m), p-Cl-phenyl (3n) and p-OCH3-phenyl (3o) homologues)
9 | COc1ccc(-c2onc3ccc(I)cc23)cc1 [Compound 3a, 5-Iodo-3-(4-methoxyphenyl)benzo[c]isoxazole] | 6.4 | < 6.59 µM and 3.03 µM | 112 to 114 | 19.4 ± 2.58 |  |  |  | 
10 | Clc1ccc(-c2onc3ccc(I)cc23)cc1 [Compound 3b, 3-(4-Chlorophenyl)-5-iodobenzo[c]isoxazole] | 12 | < 6.59 µM and 6.59 µM | 185 to 187 | 77.7 ± 5.97 |  |  |  | 
11 | Cc1ccc(-c2onc3ccc(Cl)cc23)cc1 [Compound 3c, 5-Chloro-3-(p-tolyl)benzo[c]isoxazole] | 3.3 | 2.63 ± 0.178 µM | 136 to 138 | 8.76 ± 0.058 |  |  |  | 
12 | C(#Cc1ccc2noc(-c3ccccc3)c2c1)c1ccccc1 [Compound 3d, 3-Phenyl-5-(phenylethynyl)benzo[c]isoxazole] | 9.0 | 7.92 ± 0.684 µM | 143 to 144 | 71.6 ± 3.08 |  |  |  | 
13 | Cc1nc(-c2cc3noc(-c4ccccc4)c3cc2Cl)no1 [Compound 3e, 5-Chloro-6-(5-methyl-1,2,4-oxadiazol-3-yl)-3-phenylbenzo[c]isoxazole] | 2.5 | 3.55 ± 0.037 µM | 171 to 172 | 8.95 ± 0.581 |  |  |  | 
14 | CC1(c2ccc3noc(-c4cccc(Cl)c4)c3c2)OCCO1 [Compound 3f, 3-(3-Chlorophenyl)-5-(2-methyl-1,3-dioxolan-2-yl)benzo[c]isoxazole] |  | 25.1 ± 2.41 µM | 175 to 177 | > 100 |  |  |  | 
15 | Brc1ccc2noc(-c3ccccc3)c2c1 [Compound 3g, 5-Bromo-3-phenylbenzo[c]isoxazole] | 3.4 | 5.79 ± 0.013 µM | 116 to 118 | 19.5 ± 3.2 |  |  |  | 
16 | Ic1ccc2noc(-c3ccccc3)c2c1 [Compound 3h, 5-Iodo-3-phenylbenzo[c]isoxazole] | 1.1 | < 16.3 µM and 16.3 µM | 112 to 115 | 17.7 ± 0.424 |  |  |  | 
17 | Cc1ccc(-c2onc3ccc(I)cc23)cc1 [Compound 3i, 5-Iodo-3-(p-tolyl)benzo[c]isoxazole] | 13 | < 6.59 µM and 3.49 µM | 109 to 110 | 43.9 ± 11.3 |  |  |  | 
18 | Clc1ccc2noc(-c3ccccc3)c2c1 [Compound 3j, 5-Chloro-3-phenylbenzo[c]isoxazole] |  | 4.43 ± 0.12 µM |  | 10.6 ± 0.049 |  |  |  | 
19 | COc1ccc2c(c1)[nH]c1c(C)nccc12 [Harmine, reference compound] |  | > 100 µM |  |  |  |  |  | 
